Source: patent US7727960B2, “C5a receptor antagonists” (Jerini AG, priority 2003, dated 2010)
Read-outs that look alike come from different tables or passages of the source. Positions of bridges follow the written chain, without caps; N, C: chain ends. Non-standard residues stand in square brackets, D forms with d. Residues, ends and D or L forms follow the SMILES beside them. No end group written: not given here. *: point of attachment. Phe(4-guanidino) = N=C(N)Nc1ccc(C[C@H](N)C(=O)O)cc1; X3 = O=C1CNC(=O)N1[C@@H](Cc1ccccc1)C(=O)*; X4 = O=C1CCC(=O)N1[C@@H](Cc1ccccc1)C(=O)*; Dip = N[C@H](C(=O)O)C(c1ccccc1)c1ccccc1; Phe(4-NH2) = Nc1ccc(C[C@H](N)C(=O)O)cc1; Phe(4-Me) = Cc1ccc(C[C@H](N)C(=O)O)cc1; 2Nal = N[C@@H](Cc1ccc2ccccc2c1)C(=O)O; His(τ-Me) = Cn1cnc(C[C@H](N)C(=O)O)c1; Acetyl(4-pyridyl) = O=C(Cc1ccncc1)*; Bta = N[C@@H](Cc1csc2ccccc12)C(=O)O; 4Pal = N[C@@H](Cc1ccncc1)C(=O)O; 2Thi = N[C@@H](Cc1cccs1)C(=O)O; dCha = N[C@H](CC1CCCCC1)C(=O)O; hLeu = CC(C)CC[C@H](N)C(=O)O; Pip = O=C(O)[C@@H]1CCCCN1; Nle = CCCC[C@H](N)C(=O)O; Orn = NCCC[C@H](N)C(=O)O; Pra = C#CC[C@H](N)C(=O)O; Nva = CCC[C@H](N)C(=O)O

T1: human C5aR (CD88) (Homo sapiens, UniProt P21730)
T1 construct: expressed in transfected cells; host or cells: rat basophilic leukemia cells (RBL)
T1 sequence (P21730 1-350): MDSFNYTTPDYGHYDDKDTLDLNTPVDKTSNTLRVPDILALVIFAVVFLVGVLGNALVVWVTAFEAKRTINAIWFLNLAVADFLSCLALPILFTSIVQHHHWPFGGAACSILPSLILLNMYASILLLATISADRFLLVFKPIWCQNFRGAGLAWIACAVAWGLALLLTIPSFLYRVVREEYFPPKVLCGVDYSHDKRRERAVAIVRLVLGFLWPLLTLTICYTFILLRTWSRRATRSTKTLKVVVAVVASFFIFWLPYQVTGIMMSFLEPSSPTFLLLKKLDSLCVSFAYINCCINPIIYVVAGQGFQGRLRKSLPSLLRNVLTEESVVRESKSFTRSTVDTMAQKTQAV

T2: human C5aR (CD88) (human, UniProt P21730 1-350)
T2 sequence (looked up): T1 sequence (P21730 1-350)

B1: Ac-Phe-[Orn-Pro-cha-Trp-Guf] (peptide)
peptide: Ac-F[Orn]P[dCha]W[Phe(4-guanidino)]
modifications: lactam (positions not given here); not fully specified (bridges); printed as Ac-Phe-[Orn-Pro-cha-Trp-Guf]
B2: Fbi-Phe-[Orn-Pro-cha-Trp-Nle] (peptide)
peptide: {Acetyl(4-pyridyl)}-F[Orn]P[dCha]W[Nle]
modifications: lactam 2-C (inferred)

Legend:
[1] = molecular target: T1, human C5aR (CD88); test: Determination of the IC50 value in an enzyme release assay (functional assay, antagonistic activity); type: cell-based; details: for IC50-value compared to compound 40 (in words): arginine replaced by hydrophobic substitutions; for IC50: antagonistic activity, enzyme release assay in RBL cells expressing human C5aR (CD88), read-out: activity (group)
[2] = molecular target: T1, human C5aR (CD88); test: Determination of EC50 values in an enzyme release assay (agonistic activity, no C5a added); type: cell-based; details: cellular assay, up to a concentration of at least 1430 nM
Method: The determination of the EC50 value was performed in a way similar to the procedure described in example 11, with the only exception that 30 μl of the compound to be tested were mixed with 75 μl of the cell suspension described in example 11. There was no preincubation or addition of C5a for stimulation of the enzyme release.

[3] = molecular target: T2, human C5aR (CD88); test: cell-based or functional assay
[4] = noteworthy = IC50 of less than 200 nM in the functional assay

| Molecule | inhibitory activity (in words) [1, 4] | IC50-value compared to compound 40 (in words) [1] | other results |
| --- | --- | --- | --- |
| CC(=O)N[C@@H](Cc1ccccc1)C(=O)N[C@H]1CCCNC(=O)[C@H](Cc2ccc(N)cc2)NC(=O)[C@H](Cc2c[nH]c3ccccc23)NC(=O)[C@@H](CC2CCCCC2)NC(=O)[C@@H]2CCCN2C1=O [Compound 14, Ac-Phe-[Orn-Pro-cha-Trp-Paf]] (Ac-F[Orn]P[dCha]W[Phe(4-NH2)]; lactam 2-C) | noteworthy inhibitory activity | – | – |
| CC(=O)N[C@@H](Cc1ccccc1)C(=O)N[C@H]1CCCNC(=O)[C@H](Cc2cn(C)cn2)NC(=O)[C@H](Cc2c[nH]c3ccccc23)NC(=O)[C@@H](CC2CCCCC2)NC(=O)[C@@H]2CCCN2C1=O [Compound 20, Ac-Phe-[Orn-Pro-cha-Trp-Ecr]] (Ac-F[Orn]P[dCha]W[His(τ-Me)]; lactam 2-C) | noteworthy inhibitory activity | – | – |
| CSCC[C@@H]1NC(=O)[C@H](Cc2c[nH]c3ccccc23)NC(=O)[C@@H](CC2CCCCC2)NC(=O)[C@@H]2CCCN2C(=O)[C@@H](NC(=O)[C@H](Cc2ccccc2)NC(C)=O)CCCNC1=O [Compound 29, Ac-Phe-[Orn-Pro-cha-Trp-Met]] (Ac-F[Orn]P[dCha]WM; lactam 2-C) | noteworthy inhibitory activity | without a significant increase of the IC50-value | – |
| CCC[C@@H]1NC(=O)[C@H](Cc2c[nH]c3ccccc23)NC(=O)[C@@H](CC2CCCCC2)NC(=O)[C@@H]2CCCN2C(=O)[C@@H](NC(=O)[C@H](Cc2ccccc2)NC(C)=O)CCCNC1=O [Compound 31, Ac-Phe-[Orn-Pro-cha-Trp-Nva]] (Ac-F[Orn]P[dCha]W[Nva]; lactam 2-C) | noteworthy inhibitory activity | without a significant increase of the IC50-value | – |
| CC(=O)N[C@@H](Cc1ccccc1)C(=O)N[C@H]1CCCNC(=O)[C@H](CCC(C)C)NC(=O)[C@H](Cc2c[nH]c3ccccc23)NC(=O)[C@@H](CC2CCCCC2)NC(=O)[C@@H]2CCCN2C1=O [Compound 32, Ac-Phe-[Orn-Pro-cha-Trp-Hle]] (Ac-F[Orn]P[dCha]W[hLeu]; lactam 2-C) | noteworthy inhibitory activity | without a significant increase of the IC50-value | – |
| CCSC[C@@H]1NC(=O)[C@H](Cc2c[nH]c3ccccc23)NC(=O)[C@@H](CC2CCCCC2)NC(=O)[C@@H]2CCCN2C(=O)[C@@H](NC(=O)[C@H](Cc2ccccc2)NC(C)=O)CCCNC1=O [Compound 34, Ac-Phe-[Orn-Pro-cha-Trp-Ebd]] (Ac-F[Orn]P[dCha]WC(Et); lactam 2-C) | noteworthy inhibitory activity | without a significant increase of the IC50-value | – |
| C#CC[C@@H]1NC(=O)[C@H](Cc2c[nH]c3ccccc23)NC(=O)[C@@H](CC2CCCCC2)NC(=O)[C@@H]2CCCN2C(=O)[C@@H](NC(=O)[C@H](Cc2ccccc2)NC(C)=O)CCCNC1=O [Compound 35, Ac-Phe-[Orn-Pro-cha-Trp-Eag]] (Ac-F[Orn]P[dCha]W[Pra]; lactam 2-C) | noteworthy inhibitory activity | without a significant increase of the IC50-value | – |
| CC(=O)N[C@@H](Cc1ccccc1)C(=O)N[C@H]1CCCNC(=O)[C@H](Cc2ccc(C)cc2)NC(=O)[C@H](Cc2c[nH]c3ccccc23)NC(=O)[C@@H](CC2CCCCC2)NC(=O)[C@@H]2CCCN2C1=O [Compound 36, Ac-Phe-[Orn-Pro-cha-Trp-Pmf]] (Ac-F[Orn]P[dCha]W[Phe(4-Me)]; lactam 2-C) | noteworthy inhibitory activity | without a significant increase of the IC50-value | – |
| CC(=O)N[C@@H](Cc1ccccc1)C(=O)N[C@H]1CCCNC(=O)[C@H](Cc2ccc3ccccc3c2)NC(=O)[C@H](Cc2c[nH]c3ccccc23)NC(=O)[C@@H](CC2CCCCC2)NC(=O)[C@@H]2CCCN2C1=O [Compound 37, Ac-Phe-[Orn-Pro-cha-Trp-2Ni]] (Ac-F[Orn]P[dCha]W[2Nal]; lactam 2-C) | noteworthy inhibitory activity | without a significant increase of the IC50-value | – |
| CC(=O)N[C@@H](Cc1ccccc1)C(=O)N[C@H]1CCCNC(=O)[C@H](Cc2cccs2)NC(=O)[C@H](Cc2c[nH]c3ccccc23)NC(=O)[C@@H](CC2CCCCC2)NC(=O)[C@@H]2CCCN2C1=O [Compound 38, Ac-Phe-[Orn-Pro-cha-Trp-Thi]] (Ac-F[Orn]P[dCha]W[2Thi]; lactam 2-C) | noteworthy inhibitory activity | without a significant increase of the IC50-value | – |
| CCCC[C@@H]1NC(=O)[C@H](Cc2c[nH]c3ccccc23)NC(=O)[C@@H](CC2CCCCC2)NC(=O)[C@H](CO)NC(=O)[C@@H](NC(=O)[C@@H](N)Cc2ccccc2)CCCNC1=O [Compound 44, H-Phe-[Orn-Ser-cha-Trp-Nle]] (H-F[Orn]S[dCha]W[Nle]; lactam 2-C) | – | – | agonistic activity (in words) [2]: pure antagonists |
| CC(=O)N[C@@H](C)C(=O)N[C@H]1CCCNC(=O)[C@H](CCCN=C(N)N)NC(=O)[C@H](Cc2c[nH]c3ccccc23)NC(=O)[C@@H](CC2CCCCC2)NC(=O)[C@@H]2CCCN2C1=O [Compound 45] (Ac-A[Orn]P[dCha]WR; lactam 2-C) | – | – | IC50 [1]: > 2000 nM |
| CC(=O)N[C@@H](Cc1ccccc1)C(=O)N[C@@H](CCCN)C(=O)N1CCC[C@H]1C(=O)N[C@H](CC1CCCCC1)C(=O)N[C@@H](Cc1c[nH]c2ccccc12)C(=O)N[C@@H](Cc1ccccc1)C(N)=O [Compound 51, Ac-Phe-Orn-Pro-cha-Trp-Phe-NH2] (Ac-F[Orn]P[dCha]WF-NH2) | – | – | agonistic activity (in words) [2]: pure antagonists |
| CC(=O)N[C@@H](Cc1ccccc1)C(=O)N[C@@H](CCCN)C(=O)N1CCCC[C@H]1C(=O)N[C@H](CC1CCCCC1)C(=O)N[C@@H](Cc1c[nH]c2ccccc12)C(=O)N[C@@H](Cc1ccccc1)C(N)=O [Compound 55, Ac-Phe-Orn-Pip-cha-Trp-Phe-NH2] (Ac-F[Orn][Pip][dCha]WF-NH2) | – | – | agonistic activity (in words) [2]: pure antagonists |
| CC(=O)N[C@@H](Cc1ccccc1)C(=O)N[C@@H](CCCN)C(=O)N1CCC[C@H]1C(=O)N[C@H](CC1CCCCC1)C(=O)N[C@@H](Cc1csc2ccccc12)C(=O)N[C@@H](Cc1ccccc1)C(N)=O [Compound 62, Ac-Phe-Orn-Pro-cha-Bta-Phe-NH2] (Ac-F[Orn]P[dCha][Bta]F-NH2) | – | – | agonistic activity (in words) [2]: pure antagonists |
| CC(=O)N[C@@H](Cc1cccs1)C(=O)N[C@@H](CCCN)C(=O)N1CCCC[C@H]1C(=O)N[C@H](CC1CCCCC1)C(=O)N[C@@H](Cc1csc2ccccc12)C(=O)N[C@@H](Cc1ccccc1)C(N)=O [Compound 67, Ac-Thi-Orn-Pip-cha-Bta-Phe-NH2] (Ac-[2Thi][Orn][Pip][dCha][Bta]F-NH2) | – | – | agonistic activity (in words) [2]: pure antagonists |
| CC(=O)N[C@H](C(=O)N[C@@H](CCCN)C(=O)N1CCC[C@H]1C(=O)N[C@H](CC1CCCCC1)C(=O)N[C@@H](Cc1c[nH]c2ccccc12)C(=O)N[C@@H](Cc1ccccc1)C(N)=O)C(c1ccccc1)c1ccccc1 [Compound 71, Ac-Ebw-Orn-Pro-cha-Trp-Phe-NH2] (Ac-[Dip][Orn]P[dCha]WF-NH2) | – | – | agonistic activity (in words) [2]: pure antagonists |
| NCCC[C@H](NC(=O)[C@H](Cc1ccccc1)N1C(=O)CNC1=O)C(=O)N1CCC[C@H]1C(=O)N[C@H](CC1CCCCC1)C(=O)N[C@@H](Cc1csc2ccccc12)C(=O)N[C@@H](Cc1ccccc1)C(N)=O [Compound 130, (—CO—CH2—NH—CO—)-Phe-Orn-Pro-cha-Bta-Phe-NH2] (X3-[Orn]P[dCha][Bta]F-NH2) | – | – | IC50 [1]: 50 to 200 nM |
| NCCC[C@H](NC(=O)[C@H](Cc1ccccc1)N1C(=O)CCC1=O)C(=O)N1CCC[C@H]1C(=O)N[C@H](CC1CCCCC1)C(=O)N[C@@H](Cc1csc2ccccc12)C(=O)N[C@@H](Cc1ccccc1)C(N)=O [Compound 133, (—CO—CH2—CH2—CO—)-Phe-Orn-Pro-cha-Bta-Phe-NH2] (X4-[Orn]P[dCha][Bta]F-NH2) | – | – | IC50 [1]: 200 to 2000 nM |
| Ac-Phe-[Orn-Hyp(COCH2OCH2CH2OCH2CH2OCH3)-cha-Trp-Phe] | noteworthy inhibitory activity | – | – |
| Ac-Phe-[Orn-Hyp(CONHCH2COH(OH)CH2OH)-cha-Trp-Phe] | – | – | inhibitory activity (in words) [1]: noteworthy inhibitory activity |
| Ac-Phe-[Orn-Pro-cha-Trp-Ppa] (Ac-F[Orn]P[dCha]W[4Pal]; lactam 2-C (inferred)) | noteworthy inhibitory activity | – | – |
| Ac-Phe-[Orn-Ser-cha-Trp-Phe] | noteworthy inhibitory activity | – | – |
| B1 | – | – | IC50 activity group, enzyme release assay [3]: ≤ 2000 nM |
| B2 | – | – | IC50 activity group, enzyme release assay [3]: ≤ 200 nM |
